Like-named read-outs stand apart in the source and are kept apart here.
Experiments:
[1] = target: T1, M1 muscarinic receptor (Homo sapiens, UniProt P11229); test: [3H]NMS competition binding, membranes from CHO cells expressing M1; conditions: competition with [3H]NMS, mean ± SD, three experiments, read-out: Binding affinity, negative logarithm of Ki (converted)
T1 construct: membranes
T1 sequence (P11229 1-460): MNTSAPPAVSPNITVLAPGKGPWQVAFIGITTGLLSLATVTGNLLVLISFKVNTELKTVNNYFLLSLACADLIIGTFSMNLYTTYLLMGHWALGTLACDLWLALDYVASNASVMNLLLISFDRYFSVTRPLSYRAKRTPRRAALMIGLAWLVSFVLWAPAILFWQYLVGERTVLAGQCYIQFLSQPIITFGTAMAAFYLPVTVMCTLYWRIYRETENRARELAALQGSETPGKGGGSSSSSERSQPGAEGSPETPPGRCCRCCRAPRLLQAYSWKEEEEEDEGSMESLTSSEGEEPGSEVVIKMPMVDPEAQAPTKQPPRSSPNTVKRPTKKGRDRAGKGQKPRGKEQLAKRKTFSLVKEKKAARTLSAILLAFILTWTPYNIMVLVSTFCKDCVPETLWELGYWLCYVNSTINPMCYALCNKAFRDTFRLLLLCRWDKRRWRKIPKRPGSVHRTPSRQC
Procedure: (§1) Cells were cultured as described previously by Randakova et al.[33]. […] The medium was supplemented with 5 mM butyrate for the last 24 h of culture to increase receptor expression. Cells were washed with (phosphate-buffered saline (PBS), mechanically harvested by scraper and centrifugated 1000 × g for 5 min. Cell pellets were kept at − 80 °C.
(§2) Membranes were prepared as described previously by Randakova et al.[33]. Cells harvested from twenty 100 mm petri dishes (CHO) or 30 ml of cell suspension (Sf9) were suspended in 20 ml of ice-cold incubation medium (100 mM NaCl, 20 mM Na-HEPES, 10 mM MgCl2, pH 7.4) supplemented with 10 mM EDTA and homogenized on ice by two 30‐s strokes using a Polytron homogenizer (Ultra-Turrax; Janke & Kunkel GmbH & Co. KG, IKA-Labortechnik, Staufen, Germany) with a 30 s pause between strokes. Cell homogenates were centrifuged for 5 min at 1000×g to remove whole cells and cell nuclei. The resulting supernatants were centrifuged for 30 min at 30,000×g. Pellets were suspended in a fresh incubation medium, incubated on ice for 30 min, and centrifuged again. The resulting membrane pellets were kept at − 80 °C until assayed within 10 weeks.
(§3) Non-specific binding was determined in the presence of 10 μM unlabelled atropine. Incubations were terminated by filtration through filtration plates multiscreen 96 well Harvest (Merck Millipore) using a Brandel cell harvester (Brandel, Gaithersburg, MD, USA). Filtration plates were dried in a microwave oven, and then 40 μl of liquid scintillator Rotiscint eco plus (Roth) was added. The filtration plates were counted in the Microbeta scintillation counter (PerkinElmer). […] The inhibition constant KI was calculated according to Eq. (2).
(§4) Inhibition constants KI were calculated according to Eq. (2).2 KI=IC50/1+D/KD where IC50 is calculated according to Eq.

[2] = target: T2, M2 muscarinic receptor (Homo sapiens, UniProt P08172); test: [3H]NMS competition binding, membranes from CHO cells expressing M2
T2 construct: membranes
T2 sequence (P08172 1-466): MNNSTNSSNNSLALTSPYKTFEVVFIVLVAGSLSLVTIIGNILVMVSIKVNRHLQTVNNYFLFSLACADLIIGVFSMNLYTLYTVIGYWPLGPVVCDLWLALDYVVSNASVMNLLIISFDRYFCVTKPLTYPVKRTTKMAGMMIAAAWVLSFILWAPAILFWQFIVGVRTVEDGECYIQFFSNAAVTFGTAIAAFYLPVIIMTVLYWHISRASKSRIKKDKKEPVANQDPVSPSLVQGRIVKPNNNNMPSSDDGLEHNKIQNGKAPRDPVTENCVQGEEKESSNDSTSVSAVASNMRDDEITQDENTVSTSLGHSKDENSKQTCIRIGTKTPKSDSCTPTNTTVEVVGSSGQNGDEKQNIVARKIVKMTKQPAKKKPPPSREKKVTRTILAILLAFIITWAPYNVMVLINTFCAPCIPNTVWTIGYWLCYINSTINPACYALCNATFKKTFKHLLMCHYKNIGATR
Procedure: as §1, §2, §3, §4

[3] = target: T3, M3 muscarinic receptor (Homo sapiens, UniProt P20309); test: [3H]NMS competition binding, membranes from CHO cells expressing M3; conditions: competition with [3H]NMS, mean ± SD, three experiments, read-out: Binding affinity, negative logarithm of Ki (converted)
T3 construct: membranes
T3 sequence (P20309 whole entry): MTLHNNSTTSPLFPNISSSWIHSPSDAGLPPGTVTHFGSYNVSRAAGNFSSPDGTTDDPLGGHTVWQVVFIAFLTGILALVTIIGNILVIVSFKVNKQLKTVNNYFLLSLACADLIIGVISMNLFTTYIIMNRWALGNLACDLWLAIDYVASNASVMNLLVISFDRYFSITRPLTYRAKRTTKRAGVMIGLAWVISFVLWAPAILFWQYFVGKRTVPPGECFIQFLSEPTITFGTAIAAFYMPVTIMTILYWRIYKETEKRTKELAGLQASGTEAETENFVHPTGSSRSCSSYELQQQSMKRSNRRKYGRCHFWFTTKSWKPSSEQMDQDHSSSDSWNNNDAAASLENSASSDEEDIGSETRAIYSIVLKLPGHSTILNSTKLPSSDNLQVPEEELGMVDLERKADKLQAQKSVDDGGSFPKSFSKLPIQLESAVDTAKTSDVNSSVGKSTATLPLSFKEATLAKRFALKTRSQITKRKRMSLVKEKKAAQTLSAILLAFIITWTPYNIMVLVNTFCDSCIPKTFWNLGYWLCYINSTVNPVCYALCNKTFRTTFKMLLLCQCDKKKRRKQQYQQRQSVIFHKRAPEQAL
Procedure: as §1, §2, §3, §4

[4] = target: T4, M4 muscarinic receptor (Homo sapiens, UniProt P08173); test: [3H]NMS competition binding, membranes from CHO cells expressing M4
T4 construct: membranes
T4 sequence (P08173 1-479): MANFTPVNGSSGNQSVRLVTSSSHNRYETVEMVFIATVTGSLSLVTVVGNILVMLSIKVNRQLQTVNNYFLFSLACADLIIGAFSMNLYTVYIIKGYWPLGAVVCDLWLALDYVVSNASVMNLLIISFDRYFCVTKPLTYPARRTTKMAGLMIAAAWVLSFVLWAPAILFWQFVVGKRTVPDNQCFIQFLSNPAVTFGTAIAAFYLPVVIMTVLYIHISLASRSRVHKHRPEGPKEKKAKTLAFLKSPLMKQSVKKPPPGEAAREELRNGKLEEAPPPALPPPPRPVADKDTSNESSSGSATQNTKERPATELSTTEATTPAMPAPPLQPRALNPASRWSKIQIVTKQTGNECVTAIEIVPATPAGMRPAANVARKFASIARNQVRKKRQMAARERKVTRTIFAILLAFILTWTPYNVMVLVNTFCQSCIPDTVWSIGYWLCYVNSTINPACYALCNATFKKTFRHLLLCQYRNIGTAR
Procedure: as §1, §2, §3, §4

[5] = target: T5, M5 muscarinic receptor (Homo sapiens, UniProt P08912); test: [3H]NMS competition binding, membranes from CHO cells expressing M5
T5 construct: membranes
T5 sequence (P08912 1-532): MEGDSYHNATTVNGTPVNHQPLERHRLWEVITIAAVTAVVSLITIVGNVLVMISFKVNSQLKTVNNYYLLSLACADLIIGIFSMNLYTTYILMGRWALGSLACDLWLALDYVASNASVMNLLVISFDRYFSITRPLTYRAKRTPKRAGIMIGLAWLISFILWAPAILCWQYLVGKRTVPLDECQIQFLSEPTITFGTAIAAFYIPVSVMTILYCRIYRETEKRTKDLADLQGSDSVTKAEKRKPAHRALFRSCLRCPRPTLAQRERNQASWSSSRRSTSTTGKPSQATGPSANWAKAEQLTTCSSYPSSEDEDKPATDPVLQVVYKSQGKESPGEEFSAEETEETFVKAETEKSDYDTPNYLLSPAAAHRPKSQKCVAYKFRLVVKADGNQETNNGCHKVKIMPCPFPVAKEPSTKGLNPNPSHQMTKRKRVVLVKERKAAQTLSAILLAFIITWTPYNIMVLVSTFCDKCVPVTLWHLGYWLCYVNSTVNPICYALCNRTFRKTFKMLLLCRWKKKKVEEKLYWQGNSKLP
Procedure: as §1, §2, §3, §4

SMILES | Ki [1] [µM] | Ki [2] [µM] | Ki [3] [µM] | Ki [4] [µM] | Ki [5] [µM] | Experimental binding affinity relative to JR-6 ([2]; M2 (Table 1)) | Ki ([2]; M2, competition with [3H]NMS, mean ± SD, three experiments, read-out: Binding affinity, negative logarithm of Ki (converted)) [µM] | Ki ([4]; M4, competition with [3H]NMS, mean ± SD, three experiments, read-out: Binding affinity, negative logarithm of Ki (converted)) [µM] | Ki ([5]; M5, competition with [3H]NMS, mean ± SD, three experiments, read-out: Binding affinity, negative logarithm of Ki (converted)) [µM]
C[N+]1(Cc2cccs2)CCOCC1 [JB-12-2] | 85.1 | 17.4 | 93.3 | 17 | 112 |  |  |  | 
C[N+]1(Cc2ccc(Cl)s2)CC=CCC1 (stereo not shown) [PN-152, 1-[(5-chlorothiophen-2-yl)methyl]-1-methyl-1,2,3,6-tetrahydropyridin-1-ium] |  |  |  |  |  | ten-times higher |  |  | 
c1csc(C[N+]23CCC(CC2)CC3)c1 [JB-8A] | 6.92 | 3.24 | 14.8 | 4.57 | 9.33 |  |  |  | 
COC(=O)C1=CCCN(Cc2cccs2)C1 [JB-13-1] | 115 |  | 355 |  |  |  | 23.4 | 77.6 | 468
